Data set [1] has as its system models of cerebral ischemia, retinal stroke, optic nerve crush, and Parkinson’s disease. The settings on record: cited from earlier work. The source says:
Animal toxins produced by spiders, snakes, and sea anemones are considered molecular instruments for the study of ASICs gating and promising drug precursors. […] Peptides from spiders and snakes inhibit mostly mammalian ASIC1a channels. Two of ASIC1a inhibitors from spiders, ...

Another data set concerns ASIC1b. The settings on record: cited from earlier work. The source says: (§1) It is noteworthy that to increase the current through the ASICs it takes an order of magnitude higher concentration of toxins than to inhibit it. […] No ASIC3 ...
The test system of the next data set is ASIC1a. The settings on record: cited from earlier work; for effect on ASIC1a gating state: desensitization: ref 21, closed state: ref 13, 20, 22. The source says:
Animal toxins produced by spiders, snakes, and sea anemones are considered molecular instruments for the study of ASICs gating and promising drug precursors. […] Peptides from spiders and snakes inhibit mostly mammalian ASIC1a channels. […] Peptides Hcr 1b-3 and Hcr 1b-4, electrophysiologically examined in this study, are the closest homologues of Hcr 1b-1 and Hcr 1b-2 (78%–97% of identity) as well as APETx2 (46%–49% of identity) that are attributed to β-defensin-like peptides. […] (Table 2). Despite the absence of the crucial basic residue Arg17 [31] in the sequence ...

A further data set concerns NaV1.7. Also noted: method as in PMID 22442564. The settings on record: TTX-sensitive NaV; read-out: EC50, NaV1.7 potentiation; cited from earlier work.
The test system of another data set is KV3.1. More on the design: method as in PMID 9506974. The settings on record: cited from earlier work.
The next data set concerns TTX-resistant NaV. Also noted: method as in PMID 22442564. The settings on record: cited from earlier work.
For a further data set, the system named is KV3.4. Also noted: method as in PMID 16177043. The settings on record: cited from earlier work.
In the next data set the target is T1, rat ASIC1a channel (Rattus norvegicus, UniProt P55926).
T1 construct: expressed in transfected cells; host or cells: Xenopus laevis oocytes (cRNA injection)
T1 sequence (P55926 1-526): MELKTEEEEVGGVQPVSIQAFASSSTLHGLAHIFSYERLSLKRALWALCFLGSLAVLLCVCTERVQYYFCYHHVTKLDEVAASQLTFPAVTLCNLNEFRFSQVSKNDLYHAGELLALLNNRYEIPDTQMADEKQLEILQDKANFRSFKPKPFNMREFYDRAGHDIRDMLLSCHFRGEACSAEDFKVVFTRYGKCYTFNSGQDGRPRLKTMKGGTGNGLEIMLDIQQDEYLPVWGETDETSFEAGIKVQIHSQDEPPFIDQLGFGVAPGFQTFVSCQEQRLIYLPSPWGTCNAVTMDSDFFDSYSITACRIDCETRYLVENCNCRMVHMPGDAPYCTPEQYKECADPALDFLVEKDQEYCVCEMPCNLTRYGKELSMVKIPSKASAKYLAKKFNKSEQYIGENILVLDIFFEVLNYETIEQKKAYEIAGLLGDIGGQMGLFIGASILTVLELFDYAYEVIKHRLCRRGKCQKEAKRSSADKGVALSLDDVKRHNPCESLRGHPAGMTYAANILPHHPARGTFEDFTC
The data set is described as follows: Two-electrode voltage clamp, homomeric ASIC1a currents in Xenopus laevis oocytes. The format is cell-based. The settings on record: for IC50: X. laevis oocytes, pH drop 7.8 to 5.5 (legend of Figure 4: from 7.4), peptide applied up to 15 s before, logistic fit, read-out: IC50, inhibition of rASIC1a current; for IC50 / A (response value at maximal inhibition, % of control), rASIC1a: mean ± SD, 5 cells; for A (response value at maximal inhibition, % of control), rASIC1a: fit parameter, pH drop to 5.5. On the procedure: (§2) The study of the pharmacological profile of the Hcr 1b-3 and Hcr 1b-4 peptides from H. crispa was carried out on two major ion channel subtypes, ASIC1a and ASIC3. Homomeric ASIC1a channels expressed in X. laevis oocytes were activated by a rapid pH drop from 7.8 to 5.5 in 15 s after peptide application. To analyze the effect of HcrTxs on the transient component of the ASIC3 current, the channels were activated by rapid extracellular acidification from pH 7.8 to 4.0, but effects on the sustained ASIC3 current were not studied. The inhibitory activity of three class 1b sea anemone toxins, APETx2, Hcr 1b-1, and Hcr 1b-2, towards ASICs was previously assayed in electrophysiological experiments (Table 2). In addition, we previously reported that the Hcr 1b-3 and Hcr 1b-4 peptides inhibited about 54% and 80% of the ASIC1a current, respectively.
(§3) Animal care and animal experiments were performed following the protocol approved by the Animal Care and Use Committee of the Shemyakin-Ovchinnikov Institute of Bioorganic Chemistry, Approval Code: 267/2018; Approval Date: 2 October 2018. RAS. Rat ASIC1a and ASIC3 channels were expressed in Xenopus laevis oocytes after injection of 2.5–10 ng of cRNA, as previously described. After injection oocytes were kept for 2–3 days at 19 °C and then up to 5 days at the temperature of 15–16 °C in sterile ND96 medium (96 mM NaCl, 2 mM KCl, 1.8 mM CaCl2, 1 mM MgCl2, 5 mM HEPES titrated to pH 7.4 with NaOH supplemented with 50 μg/mL of gentamycin). Two-electrode voltage clamp recordings were performed using GeneClamp 500 amplifier (Axon Instruments, Foster City, CA, USA). The data were filtered at 100 Hz and digitized at 1000 Hz by an AD converter L780 (LCard, Moscow, Russia) using in-house software. The solutions were applied to a cell chamber (volume 75 μL). The laminar flow of an external solution of ND96 (pH 7.8) was used at a rate of 1 mL/min. ASIC1a and ASIC3 were activated by a short pH drop from 7.8 to 5.5 or to 4.0 (10 mM MES or 10 mM acetic acid was used as the buffer solution, respectively) in supplementary 0.1% BSA solution. Peptides were applied for up to 15 s before the activation impulse. A value of currents inhibition was calculated as the ratio of the peak current amplitude when the peptide was applied to the average amplitude of the control peak currents before and after the peptide application and expressed as a percentage. To construct the concentration–response curves, a logistic equation was the following: y = ((1 – A)/(1 + ([C]/IC50) nH)) + A; where y is the relative value of current inhibition; C is the peptide concentration; IC50 is the half maximal inhibitory concentration; nH is the Hill coefficient; A is the response value at maximal inhibition (% of control). Calculations were carried out using software Origin 7.0. The data are presented as mean ± SD.

Data set [2] addresses T2, rat ASIC3 channel (Rattus norvegicus, UniProt O35240).
T2 construct: expressed in transfected cells; host or cells: Xenopus laevis oocytes (cRNA injection)
T2 sequence (O35240 1-533): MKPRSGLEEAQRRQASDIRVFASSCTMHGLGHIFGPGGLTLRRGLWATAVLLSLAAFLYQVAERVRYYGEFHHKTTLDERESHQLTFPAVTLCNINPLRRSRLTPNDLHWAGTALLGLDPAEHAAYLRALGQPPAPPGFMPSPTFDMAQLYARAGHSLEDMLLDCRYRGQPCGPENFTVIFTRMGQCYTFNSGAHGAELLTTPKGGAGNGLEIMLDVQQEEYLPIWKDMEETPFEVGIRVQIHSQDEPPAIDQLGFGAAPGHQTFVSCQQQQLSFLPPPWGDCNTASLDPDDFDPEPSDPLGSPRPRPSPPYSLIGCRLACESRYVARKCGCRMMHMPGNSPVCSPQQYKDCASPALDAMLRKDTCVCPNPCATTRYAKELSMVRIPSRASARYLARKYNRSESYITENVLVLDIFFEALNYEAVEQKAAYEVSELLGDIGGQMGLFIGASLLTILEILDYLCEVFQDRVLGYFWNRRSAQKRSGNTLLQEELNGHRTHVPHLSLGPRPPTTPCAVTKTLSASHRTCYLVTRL
The data set is described as follows: Two-electrode voltage clamp, homomeric ASIC3 transient currents in Xenopus laevis oocytes. It is filed as cell-based. The settings on record: mean ± SD, 5 cells. Here is the method:
as §2
as §3, with “The data are presented as mean ± SD.” left out

Another data set has as its system human ASIC3. The settings on record: simian-kidney-derived COS-7 cells; read-out: IC50, inhibition of human ASIC3; cited from earlier work. The source says:
(§4) Table 2 Electrophysiological activity of sea anemone toxins of structural class 1b on homomeric acid-sensing ion channels (ASICs). | column: ASIC3

Data set [3] addresses T2, rat ASIC3 channel. The settings on record: rat ASIC3, X. laevis oocytes according to footnote of Table 2; read-out: IC50, inhibition of ASIC3 (APETx2); cited from earlier work.
Source text: as §4

A further data set relates to ASIC3. The settings on record: cited from earlier work.
For data set [4] the following is noted: cited from earlier work. The source says:
Similarly to other APETx-like peptides, HcrTxs form four-stranded antiparallel β-sheets cross-linked by three disulfide bridges (C1–C5, C2–C4, C3–C6). Conforming to the obtained models, the short α-helix (22-24 aa) of HcrTxs localized within the flexible region between the second and third strands (Figure 3a). Hcr 1b-2, -3, -4, and APETx2 are very basic peptides (theoretical pI being of 9.53, 9.23, 9.26, and 9.33, respectively). Basic-aromatic clusters play an important role in the formation of complexes between the ASIC channel and peptide toxins PcTx1, mambalgin- ...

For the next data set, the system named is hERG. Also noted: method as in 2 sources, ref 31 = [31]; PMID 25337890; doi:10.1021/jm501400p; 31. Jensen J.E. Cristofori-Armstrong B. Anangi R. Rosengren K.J. Lau C.H.Y. Mobli M. Brust A. Alewood P.F. King G.F. Rash L.D. Understanding the molecular basis of toxin promiscuity: The analgesic sea ||| ref 33 = [33]; PMID 12815161; doi:10.1124/mol.64.1.59; 33. Diochot S. APETx1, a new toxin from the sea anemone anthopleura elegantissima, blocks voltage-gated human ether-a-go-go-related gene potassium channels Mol. Pharmacol. 2003 64 59 69 10.1124/mol.64. The settings on record: cited from earlier work.

In another data set the test system is NaV1.2. More on the design: method as in PMID 22972919. The settings on record: cited from earlier work.
Another data set relates to NaV1.8. Also noted: method as in PMID 22972919. The settings on record: cited from earlier work.
Another data set relates to ASIC2a. The settings on record: cited from earlier work.
Source text: as §1

The source of these data is publication PMC7232172, “APETx-Like Peptides from the Sea Anemone Heteractis crispa, Diverse in Their Effect on ASIC1a and ASIC3 Ion Channels” (Toxins, 2020).

Read-outs that look alike come from different tables or passages of the source. Bridges are numbered along the chain shown (N, C = ends). Where no end group is shown, it is not given here.

Consider “PcTx1: spider toxin from Psalmopoeus cambridgei (EDCIPKWKGCVNRHGDCCEGLECWKRRRSFEVCVPKTPKT; ends and bridges not checked; cysteine pairing not given here; UniProt P60514 1-40, looked up)”, for which the neuroprotection entry in data set [1] is “effective neuroprotectors”. Further, the “effect on ASIC1b current” value with ASIC1b is recorded as “potentiate ASIC1b”. Also, the “effect on ASIC1a gating state” value in the data set on ASIC1a is reported as “promote desensitization of ASIC1a”.

Take “BDS-I: toxin BDS-I from sea anemone A. sulcata (AAPCFCSGKPGRGDLWILRGTCPGGYGYTSNCYKWPNICCYPH; UniProt P11494 1-43, looked up)”: the EC50 with NaV1.7 is ~3 nM. Also, the half-inhibitory concentration (IC50) is 47 nM with KV3.1 and 220 nM with KV3.4. In addition, in the data set on TTX-resistant NaV, the “effect on TTX-resistant NaV” value is “weakly inhibits TTX-resistant NaV”.

“GTPCDCYGYTGVYWFMLSRCPSGYGYNLSCHYFMGICCVKR (disulfide 4-37, 6-30, 20-38) [Hcr 1b-4]”: on rat ASIC1a channel, the IC50 stood at 1.25 ± 0.04 µM and the “A (response value at maximal inhibition, % of control), rASIC1a” value is 13.7 ± 0.8%. Moreover, the half-maximal effective concentration (EC50) at rat ASIC3 channel [2] (X. laevis oocytes, pH drop 7.8 to 4.0 (legend of Figure 4: from 7.4), potentiation, read-out: EC50, potentiation of transient rASIC3 current) came out at 1530 ± 70 nM. Further, the “A, rASIC3 potentiation” value at rat ASIC3 channel [2] (fit parameter, pH drop to 4.0) was found to be 207.78 ± 1.56%.

Turning to “mambalgin-1: snake toxin from Dendroaspis polylepis (LKCYQHGKVVTCHRDMKFCYHNTGMPFRNLKLILQGCSSSCSETENNKCCSTDRCNK; UniProt P0DKR6 22-78, looked up)”, in the data set with ASIC1a, the “effect on ASIC1a gating state” value is reported as “stabilize the closed channels state”.

In the case of “APETx2: toxin from sea anemone Anthopleura elegantissima, ASIC3 inhibitor (GTACSCGNSKGIYWFYRPSCPTDRGYTGSCRYFLGTCCTPAD; UniProt P61542 1-42, looked up)”, the half-maximal inhibitory concentration (IC50) with human ASIC3 was 175 nM; with rat ASIC3 channel [3], 63 nM; with ASIC3 (species not given, read-out: IC50, inhibition of ASIC3), 63 nM; in the data set with hERG, 1210 ± 50 nM; with NaV1.2, 114 ± 25 nM; with NaV1.8 it was 55 ± 10 nM. Moreover, in the data set on ASIC3 (sustained current), the “effect on ASIC3 sustained component” value is “no effect”. The “theoretical pI” value in data set [4] is recorded as 9.33. In addition, the “effect on ASIC1b current” value in the data set on ASIC1b is “potentiate ASIC1b”. Besides, the “effect on ASIC2a current” value in the data set on ASIC2a was “potentiate ASIC1b and ASIC2a currents”. In the data set with ASIC1a, the “effect on ASIC1a current” value is “no effect”.

On to “GTPCKCHGYIGVYWFMLAGCPDGYGYNLSCPYFLGICCVKK (disulfide 4-37, 6-30, 20-38) [Hcr 1b-3]”, for which the inhibition at 120 µM on rat ASIC1a channel (Hcr 1b-3 at 120 μM, Hcr 1b-4 from concentration–response relationship, read-out: maximal inhibition of ASIC1a current) worked out at 70%. Besides, the IC50 on rat ASIC1a channel was determined as 4.95 ± 0.19 µM; on rat ASIC3 channel [2] (X. laevis oocytes, pH drop 7.8 to 4.0 (legend of Figure 4: from 7.4), logistic fit, read-out: IC50, inhibition of transient rASIC3 current), 17 ± 5.8 µM. The “A (response value at maximal inhibition, % of control), rASIC1a” value at rat ASIC1a channel is reported as 30.3 ± 0.7%. The “A (response value at maximal inhibition, % of control), rASIC3” value at rat ASIC3 channel [2] (fit parameter, pH drop to 4.0) is reported as 26 ± 7%.
